Measured values published in US9200171B2, “AZO compound and ink containing the compound” (MITSUBISHI CHEMICAL CORPORATION, priority 2011, dated 2015).
≈ marks a conversion by molar mass, not a printed value.

What was measured:
[1] = Solubility C (saturated concentration at 5° C.) of compound in low-polarity solvent and product εC; format: physicochemical; conditions: for ε · C: C at 5° C.; for solubility at 24 h: organic solvent or mixture, thermodynamic from solid; for solubility at 24 h / Solubility: at 5° C.
Description: The solubility C of each compound in each solvent was measured as follows.
Each compound was added to each solvent until a dissolution residue came to remain, and the mixture was subjected to an ultrasonic treatment for 30 minutes at 30° C. After the mixture was allowed to stand at 5° C. for 24 hours, centrifugal filtration was performed through a filter of 0.1 μm using a microcentrifuge (centrifugal force 5200×g). The resulting saturated solution was diluted to an appropriate concentration, and measurement of absorption spectra was performed on Hitachi spectrophotometer U-4100 using a quartz cell having an optical path length for measurement of 10 mm. The concentration of each compound was determined from a relationship between the absorbance at the absorption-maximum wavelength λmax (nm) and the molar extinction coefficient ε (L·mol^−1·cm^−1) previously measured, and the solubility C (mol·L^−1) was calculated. Moreover, the value of the product of the molar extinction coefficient ε (L·mol^−1·cm^−1) and the solubility C (mol·L^−1), εC, was determined.
Sudan Black B (manufactured by Tokyo Chemical Industry Co., Ltd.) that is a commercially available oil-soluble black dye was added to n-decane (relative permittivity 2.0, solubility in water 1 mg/L or less) until a dissolution residue came to remain, and the mixture was subjected to an ultrasonic treatment for 30 minutes at 30° C. After the mixture was allowed to stand at 5° C. for 24 hours, centrifugal filtration was performed through a filter of 0.1 μm using a microcentrifuge (centrifugal force 5200×g). The resulting saturated n-decane solution was diluted to an appropriate concentration.

[2] = Absorption-maximum wavelength λmax, molar extinction coefficient ε and solution colour in each solvent; format: physicochemical
Description: Each of the compounds 1 to 15 and the comparative example compounds 1 and 2 (1 mg each) was dissolved in each solvent (100 ml) and measurement of absorption spectra was performed on Hitachi spectrophotometer U-4100 using a quartz cell having an optical path length for measurement of 10 mm. From the resulting spectra, absorption-maximum wavelength λmax (nm) and molar extinction coefficient ε ([…]) were determined.

[3] = Isopar M, at absorption-maximum wavelength
[4] = n-decane, at absorption-maximum wavelength
[5] = tetradecane, at absorption-maximum wavelength
[6] = mixed solvent of n-decane/Isopar L (mixing ratio 1/1)

## CCCCC(CC)CNc1ccc(NCC(CC)CCCC)c2c1C(=O)c1ccccc1C2=O (centres unmarked) [Comparative example compound 1, reference compound]
[1]; Isopar M
  ε · C: 1200 cm⁻¹
[1]; n-decane
  ε · C: 460 cm⁻¹
[1]; in Isopar M
  solubility at 24 h: 71 mM (≈ 32.9 mg/mL)
[1]; in n-decane
  solubility at 24 h: 27 mM (≈ 12.5 mg/mL)
[1]; in tetradecane
  solubility at 24 h: 94 mM (≈ 43.5 mg/mL)
[1]; tetradecane
  ε · C: 1600 cm⁻¹
[2]; Isopar M
  Absorption-maximum wavelength: 651 nm
[2]; Isopar M solution
  Color tone: blue
[2]; [3]
  ε: 17000 L/mol/cm
[2]; n-decane
  Absorption-maximum wavelength: 652 nm
[2]; n-decane solution
  Color tone: blue
[2]; [4]
  ε: 17000 L/mol/cm
[2]; tetradecane
  Absorption-maximum wavelength: 651 nm
[2]; tetradecane solution
  Color tone: blue
[2]; [5]
  ε: 17000 L/mol/cm

## C=CCn1c(N=Nc2ccc(N(CCC)CCC)cc2NC(C)=O)nc(C#N)c1C#N [Comparative example compound 2, reference compound]
[1]; Isopar M
  ε · C: ≤ 10 or cm^−1
[1]; n-decane
  ε · C: ≤ 10 or cm^−1
[1]; in Isopar M
  solubility at 24 h: ≤ 0.01 mM
[1]; in n-decane
  solubility at 24 h: ≤ 0.01 mM
[1]; in tetradecane
  solubility at 24 h: ≤ 0.01 mM
[1]; tetradecane
  ε · C: ≤ 10 or cm^−1
[2]; Isopar M
  Absorption-maximum wavelength: 514 nm
[2]; Isopar M solution
  Color tone: red
[2]; [3]
  ε: 39000 L/mol/cm
[2]; n-decane
  Absorption-maximum wavelength: 512 nm
[2]; n-decane solution
  Color tone: red
[2]; [4]
  ε: 34000 L/mol/cm
[2]; tetradecane
  Absorption-maximum wavelength: 514 nm
[2]; tetradecane solution
  Color tone: red
[2]; [5]
  ε: 39000 L/mol/cm

## CCCCc1ccc(N=Nc2cc(C#N)c(/N=N/c3ccc(N(CC(CC)CCCC)CC(CC)CCCC)cc3NC(C)=O)s2)cc1 (centres unmarked) [Compound 1]
[1]; n-decane
  ε · C: 1800 cm⁻¹
[1]; in n-decane
  solubility at 24 h: 24 mM (≈ 16.1 mg/mL)
[2]; n-decane
  Absorption-maximum wavelength: 619 nm
[2]; n-decane solution
  Color tone: blue
[2]; [4]
  ε: 76000 L/mol/cm

## CCCCC(CC)CN(CC(CC)CCCC)c1ccc(N=Nc2sc(N=Nc3ccc(C(=O)OCC(C)C)cc3)cc2C#N)c(CC)c1 (centres unmarked) [Compound 2]
[1]; in n-decane
  Solubility: 27 mM (≈ 18.5 mg/mL)
[1]; in tetradecane
  Solubility: 27 mM (≈ 18.5 mg/mL)
[1]; n-decane
  ε · C: 1500 cm⁻¹
[1]; tetradecane
  ε · C: 1500 cm⁻¹
[2]; n-decane
  Absorption-maximum wavelength: 635 nm
[2]; n-decane solution
  Color tone: blue
[2]; [4]
  ε: 57000 L/mol/cm
[2]; tetradecane
  Absorption-maximum wavelength: 637 nm
[2]; tetradecane solution
  Color tone: blue
[2]; [5]
  ε: 54000 L/mol/cm

## CCCCc1ccc(N=Nc2cc(C#N)c(N=Nc3cc(OC)c(N(CC(CC)CCCC)CC(CC)CCCC)cc3NC(C)=O)s2)cc1 (centres unmarked) [Compound 3]
[1]; Isopar L
  ε · C: 8200 cm⁻¹
[1]; Isopar M
  ε · C: 11100 cm⁻¹
[1]; in Isopar L
  Solubility: 110 mM (≈ 77 mg/mL)
[1]; in Isopar M
  Solubility: 150 mM (≈ 105 mg/mL)
[1]; in mixed solvent of n-decane/Isopar L (mixing ratio 1/1)
  Solubility: 63 mM
[1]; in n-decane
  Solubility: 140 mM (≈ 98 mg/mL)
[1]; in tetradecane
  Solubility: 150 mM (≈ 105 mg/mL)
[1]; [6]
  ε · C: 4700 cm⁻¹
[1]; n-decane
  ε · C: 9900 cm⁻¹
[1]; tetradecane
  ε · C: 10600 cm⁻¹
[2]; Isopar L
  Absorption-maximum wavelength: 667 nm
[2]; Isopar L solution
  Color tone: blue
[2]; Isopar L, at absorption-maximum wavelength
  ε: 75000 L/mol/cm
[2]; Isopar M
  Absorption-maximum wavelength: 668 nm
[2]; Isopar M solution
  Color tone: blue
[2]; [3]
  ε: 72000 L/mol/cm
[2]; [6]
  Absorption-maximum wavelength: 667 nm
  Color tone: blue
  ε: 75000 L/mol/cm
[2]; n-decane
  Absorption-maximum wavelength: 667 nm
[2]; n-decane solution
  Color tone: blue
[2]; [4]
  ε: 73000 L/mol/cm
[2]; tetradecane
  Absorption-maximum wavelength: 669 nm
[2]; tetradecane solution
  Color tone: blue
[2]; [5]
  ε: 73000 L/mol/cm

## CCCCC(CC)CN(CC(CC)CCCC)c1ccc(/N=N/c2sc(N=Nc3ccc(C(=O)OCC(C)C)cc3)cc2C#N)c(C(C)C)c1 (centres unmarked) [Compound 4]
[1]; n-decane
  ε · C: 1800 cm⁻¹
[1]; in n-decane
  solubility at 24 h: 27 mM (≈ 18.9 mg/mL)
[1]; in tetradecane
  solubility at 24 h: 20 mM (≈ 14 mg/mL)
[1]; tetradecane
  ε · C: 1300 cm⁻¹
[2]; n-decane
  Absorption-maximum wavelength: 638 nm
[2]; n-decane solution
  Color tone: blue
[2]; [4]
  ε: 66000 L/mol/cm
[2]; tetradecane
  Absorption-maximum wavelength: 640 nm
[2]; tetradecane solution
  Color tone: blue
[2]; [5]
  ε: 64000 L/mol/cm
